Legend:
[1] = system: rat; conditions: Subchronic oral toxicity in rodents, sprague dawley, Gavage/Intubation, dose end: 90 day, group: systemic, systemic / clinical chemistry / calcium / calcium + systemic / clinical chemistry / cholesterol / cholesterol + systemic / clinical …
[2] = system: rat; conditions: Prenatal developmental toxicity study, sprague dawley, Oral, Gavage/Intubation, dose end: 18 GD
[3] = system: rat; conditions: Subchronic oral toxicity in rodents, sprague dawley, Feed, dose end: 92 day, group: systemic
[4] = system: rabbit; conditions: Prenatal developmental toxicity study, new zealand white, Oral, Gavage/Intubation, dose end: 19 GD, group: maternal
[5] = system: rat; conditions: Sub-acute repeat dose toxicity; Oral; Gavage/Intubation; dose end: 19 day; group: systemic; systemic / in life observation / body weight / body weight + systemic / in life observation / clinical signs / salivation
[6] = system: rat; conditions: Sub-acute repeat dose toxicity; Oral; Gavage/Intubation; dose end: 14 day; group: systemic; systemic / in life observation / body weight / body weight gain + systemic / in life observation / clinical signs / reduced activity + …
[7] = system: rat; conditions: Fertility (Segment I); sprague dawley; Oral; Gavage/Intubation; dose end: 1 generation; group: parental; systemic / in life observation / body weight / body weight + systemic / in life observation / clinical signs / salivation + systemic / in …
[8] = system: mouse; conditions: Subchronic oral toxicity in rodents, Feed, dose end: 92 day, group: systemic
[9] = system: rat; conditions: Sub-acute repeat dose toxicity; Oral; Gavage/Intubation; dose end: 38 day; group: systemic; systemic / clinical chemistry / albumin / albumin + systemic / clinical chemistry / creatinine / creatinine + systemic / clinical chemistry…
[10] = system: dog; conditions: Sub-acute repeat dose toxicity, beagle, Oral, Gavage/Intubation, dose end: 8 day, group: systemic
[11] = system: rabbit; conditions: Sub-acute repeat dose toxicity; new zealand white; Oral; Gavage/Intubation; dose end: 5 day; group: systemic; systemic / in life observation / food consumption / food consumption
[12] = system: rat; conditions: Peri- and post-natal toxicity study (Segment III), Oral, Gavage/Intubation, dose end: 1 generation
[13] = system: dog; conditions: Subchronic oral toxicity in nonrodent, beagle, Gavage/Intubation, dose end: 98 day, group: systemic
[14] = system: rat; conditions: Sub-acute repeat dose toxicity, sprague dawley, Oral, Feed, dose end: 15 day, group: systemic
[15] = system: mouse; conditions: Sub-acute repeat dose toxicity, Oral, Feed, dose end: 15 day, group: systemic
[16] = system: rat; conditions: Fertility (Segment I); sprague dawley; Oral; Gavage/Intubation; dose end: 1 generation; group: parental; systemic / in life observation / body weight / body weight + systemic / in life observation / clinical signs / salivation + systemic / in …; remark: listed apart in the source
[17] = system: rabbit; conditions: Sub-acute repeat dose toxicity, new zealand white, Oral, Gavage/Intubation, dose end: 13 day
[18] = system: mouse; conditions: Carcinogenicity, cd1, Oral, Feed, dose end: 19 month, group: systemic
[19] = system: rat; conditions: Combined chronic toxicity/carcinogenicity; other; Oral; Feed; dose end: 102 week; group: systemic; systemic / pathology microscopic / kidney / degeneration + systemic / pathology microscopic / kidney / dilatation + systemic / pathology …
[20] = system: dog; conditions: Chronic toxicity, beagle, Oral, Feed, dose end: 52 week, group: systemic
[21] = system: rat; conditions: Subchronic oral toxicity in rodents, sprague dawley, Feed, dose end: 13 week, group: systemic, systemic / clinical chemistry / urea nitrogen / urea nitrogen + systemic / clinical chemistry / creatinine / creatinine + systemic / …
[22] = system: dog; conditions: Subchronic oral toxicity in nonrodent, beagle, Feed, dose end: 90 day, group: systemic
[23] = system: rat; conditions: Subchronic oral toxicity in rodents, sprague dawley, Feed, dose end: 90 day, group: systemic
[24] = group: developmental, developmental / developmental malformation / bone / [other] + systemic / in life observation / body weight / fetal weight
[25] = group: maternal, systemic / in life observation / body weight / body weight + systemic / in life observation / clinical signs / salivation + systemic / in …
[26] = systemic / in life observation / body weight / body weight
[27] = systemic / in life observation / body weight / body weight + systemic / in life observation / clinical signs / lacrimation or red-colored …
[28] = systemic / in life observation / food consumption / food consumption
[29] = systemic / in life observation / food consumption / food consumption + reproductive / reproductive performance / aborted / aborted + …
[30] = systemic / clinical chemistry / cholesterol / cholesterol + systemic / in life observation / body weight / body weight + systemic / clinical…
[31] = systemic / hematology / lymphocyte / lymphocyte
[32] = systemic / hematology / leukocyte (wbc) count differential / leukocyte (wbc) + systemic / in life observation / clinical signs / abnormal …
[33] = systemic / in life observation / clinical signs / abnormal feces + systemic / in life observation / clinical signs / salivation
[34] = group: developmental, developmental / developmental landmark / eye opening / eye opening
[35] = group: parental, systemic / in life observation / body weight / body weight + systemic / in life observation / body weight / body weight gain + systemic / in…
[36] = systemic / in life observation / clinical signs / salivation
[37] = systemic / in life observation / clinical signs / salivation + systemic / in life observation / clinical signs / emesis
[38] = systemic / in life observation / body weight / body weight + systemic / in life observation / clinical signs / alopecia + systemic / in life…
[39] = systemic / in life observation / body weight / body weight + systemic / in life observation / clinical signs / hunched posture + systemic / …
[40] = group: maternal, reproductive / reproductive performance / aborted / aborted
[41] = group: systemic, systemic / in life observation / body weight / body weight gain + systemic / in life observation / food consumption / food consumption
[42] = group: systemic, systemic / in life observation / body weight / body weight gain + systemic / in life observation / food consumption / food consumption + …
[43] = systemic / in life observation / body weight / body weight gain + systemic / clinical chemistry / alkaline phosphatase (alp/alk) / alkaline …
[44] = systemic / organ weight / ovary / absolute + systemic / organ weight / ovary / relative to body weight + systemic / organ weight / ovary / …

SMILES: CS(=O)(=O)O.Cc1nccn1-c1ccc(Sc2cccc(C3(C(N)=O)CCOCC3)c2)cc1
- LEL [1]: 20 mg/kg/day
- LOAEL [1]: > 150 mg/kg/day
- NEL [1]: 5 mg/kg/day
- NOAEL [1]: ≥ 150 mg/kg/day
- LEL [2, 24]: 50 mg/kg/day
- LOAEL [2, 24]: > 50 mg/kg/day
- NOAEL [2, 24]: ≥ 50 mg/kg/day
- LOAEL [2, 25]: > 50 mg/kg/day
- NEL [2, 25]: 5 mg/kg/day
- NOAEL [2, 25]: ≥ 50 mg/kg/day
- LEL ([2]; group: maternal, systemic / in life observation / body weight / body weight + systemic / in life observation / food consumption / food consumption): 15 mg/kg/day
- LEL [3, 26]: 10 mg/kg/day
- NEL [3, 26]: < 10 mg/kg/day
- LOAEL [3, 27]: > 100 mg/kg/day
- NOAEL [3, 27]: ≥ 100 mg/kg/day
- LEL [4, 28]: 2 mg/kg/day
- NEL [4, 28]: < 2 mg/kg/day
- LOAEL [4, 29]: > 25 mg/kg/day
- NOAEL [4, 29]: ≥ 25 mg/kg/day
- LEL [5]: 100 mg/kg/day
- LOAEL [5]: > 100 mg/kg/day
- NEL [5]: < 100 mg/kg/day
- NOAEL [5]: ≥ 100 mg/kg/day
- LEL [6]: 200 mg/kg/day
- LOAEL [6]: > 200 mg/kg/day
- NEL [6]: < 200 mg/kg/day
- NOAEL [6]: ≥ 200 mg/kg/day
- LEL [7]: 50 mg/kg/day
- LOAEL [7]: > 50 mg/kg/day
- NEL [7]: 15 mg/kg/day
- NOAEL [7]: ≥ 50 mg/kg/day
- LOAEL [8, 30]: > 600 mg/kg/day
- NOAEL [8, 30]: ≥ 600 mg/kg/day
- LEL [8, 31]: 30 mg/kg/day
- NEL [8, 31]: < 30 mg/kg/day
- LEL [9]: 250 mg/kg/day
- LOAEL [9]: > 250 mg/kg/day
- NEL [9]: < 250 mg/kg/day
- NOAEL [9]: ≥ 250 mg/kg/day
- LOAEL [10, 32]: > 60 mg/kg/day
- NOAEL [10, 32]: ≥ 60 mg/kg/day
- LEL [10, 33]: 3 mg/kg/day
- NEL [10, 33]: < 3 mg/kg/day
- LEL [11]: 10 mg/kg/day
- LOAEL [11]: > 100 mg/kg/day
- NEL [11]: < 10 mg/kg/day
- NOAEL [11]: ≥ 100 mg/kg/day
- LEL [12, 34]: 50 mg/kg/day
- LOAEL [12, 34]: > 50 mg/kg/day
- NOAEL [12, 34]: ≥ 50 mg/kg/day
- LEL [12, 35]: 15 mg/kg/day
- LOAEL [12, 35]: > 50 mg/kg/day
- NEL [12, 35]: 5 mg/kg/day
- NOAEL [12, 35]: ≥ 50 mg/kg/day
- LEL [13, 36]: 3 mg/kg/day
- NEL [13, 36]: < 3 mg/kg/day
- LOAEL [13, 37]: > 30 mg/kg/day
- NOAEL [13, 37]: ≥ 30 mg/kg/day
- LOAEL [14, 38]: > 600 mg/kg/day
- NEL [14, 38]: 30 mg/kg/day
- NOAEL [14, 38]: ≥ 600 mg/kg/day
- LEL ([14]; systemic / in life observation / body weight / body weight + systemic / in life observation / food consumption / food consumption): 100 mg/kg/day
- LOAEL [15, 39]: > 1200 mg/kg/day
- NOAEL [15, 39]: ≥ 1200 mg/kg/day
- LEL ([15]; systemic / in life observation / body weight / body weight + systemic / in life observation / food consumption / food consumption + systemic…): 600 mg/kg/day
- LEL [16]: 50 mg/kg/day
- LOAEL [16]: > 50 mg/kg/day
- NEL [16]: 15 mg/kg/day
- NOAEL [16]: ≥ 50 mg/kg/day
- LEL [17, 40]: 50 mg/kg/day
- LOAEL [17, 40]: > 200 mg/kg/day
- NEL [17, 40]: 10 mg/kg/day
- NOAEL [17, 40]: ≥ 200 mg/kg/day
- LEL [17, 41]: 10 mg/kg/day
- NEL [17, 41]: < 10 mg/kg/day
- LOAEL [17, 42]: > 200 mg/kg/day
- NOAEL [17, 42]: ≥ 200 mg/kg/day

SMILES: CC1=C(C(=O)Nc2ccccc2)SCCO1 [Carboxin]
- LOAEL ([18]; systemic / in life observation / mortality / mortality): 451 mg/kg/day
- NOAEL ([18]; systemic / in life observation / mortality / mortality + systemic / pathology microscopic / liver / hypertrophy): 9 mg/kg/day
- LEL ([18]; systemic / pathology microscopic / liver / hypertrophy): 385 mg/kg/day
- NEL ([18]; systemic / pathology microscopic / liver / hypertrophy + systemic / pathology microscopic / lung / adenoma): 8 mg/kg/day
- LEL [19]: 9 mg/kg/day
- LOAEL [19]: 9 mg/kg/day
- NEL [19]: 0.8 mg/kg/day
- NOAEL [19]: 0.8 mg/kg/day
- LOAEL ([20]; systemic / in life observation / body weight / body weight gain): 15 mg/kg/day
- NEL [20, 43]: 1.3 mg/kg/day
- NOAEL [20, 43]: 1.3 mg/kg/day
- LEL ([20]; systemic / in life observation / body weight / body weight gain + systemic / hematology / mean corpuscular (cell) volume (mcv) / mean …): 15 mg/kg/day
- LEL [21]: 10 mg/kg/day
- LOAEL [21]: 10 mg/kg/day
- NEL [21]: < 10 mg/kg/day
- NOAEL [21]: < 10 mg/kg/day
- LOAEL [22, 44]: 17.7 mg/kg/day
- NEL [22, 44]: 5.9 mg/kg/day
- NOAEL [22, 44]: 9 mg/kg/day
- LEL ([22]; systemic / pathology microscopic / parathyroid gland / cyst + systemic / pathology microscopic / pituitary gland / cyst): 9 mg/kg/day
- LOAEL ([23]; systemic / pathology microscopic / kidney / nephropathy): 10.5 mg/kg/day
- NOAEL ([23]; systemic / pathology microscopic / kidney / nephropathy + systemic / in life observation / clinical signs / defecation): 5.5 mg/kg/day

Source: EPA's ToxRefDB 2
